This note sets out measurements from US20240083900A1, “PYRAZOLO[1,5-A]PYRAZINE DERIVATIVES AS BTK INHIBITORS” (BIOGEN MA INC., priority 2020, published 2024).

pIC50: −log10 of the molar value.

For the first experiment, the target named is BTK (Homo sapiens (Human), UniProt Q06187). In words: In Vitro BTK Kinase Assay: Btk-PolyGAT-LS Assay. It counts as biochemical. The following applies: BTK enzyme 0.25 nM, ATP 10 μM, polyGAT 100 nM, 30 minutes incubation, TRF readout; read-out: IC50. On the procedure: The purpose of the BTK in vitro assay is to determine compound potency against BTK through the measurement of IC50. […] For a typical assay, a 24 μL aliquot of a ATP/peptide master mix (final concentration; ATP 10 μM, polyGAT 100 nM) in kinase buffer (10 mM Tris-HCl pH 7.5, 10 mM MgCl2, 200 μM Na3PO4, 5 mM DTT, 0.01% Triton X-100, and 0.2 mg/ml casein) is added to each well. […] The assay is incubated for 30 minutes before being stopped with 28 μL of a 50 mM EDTA solution. […] The plate is covered and incubated for 45 minutes at room temperature.
Chain of BTK (Q06187 whole entry): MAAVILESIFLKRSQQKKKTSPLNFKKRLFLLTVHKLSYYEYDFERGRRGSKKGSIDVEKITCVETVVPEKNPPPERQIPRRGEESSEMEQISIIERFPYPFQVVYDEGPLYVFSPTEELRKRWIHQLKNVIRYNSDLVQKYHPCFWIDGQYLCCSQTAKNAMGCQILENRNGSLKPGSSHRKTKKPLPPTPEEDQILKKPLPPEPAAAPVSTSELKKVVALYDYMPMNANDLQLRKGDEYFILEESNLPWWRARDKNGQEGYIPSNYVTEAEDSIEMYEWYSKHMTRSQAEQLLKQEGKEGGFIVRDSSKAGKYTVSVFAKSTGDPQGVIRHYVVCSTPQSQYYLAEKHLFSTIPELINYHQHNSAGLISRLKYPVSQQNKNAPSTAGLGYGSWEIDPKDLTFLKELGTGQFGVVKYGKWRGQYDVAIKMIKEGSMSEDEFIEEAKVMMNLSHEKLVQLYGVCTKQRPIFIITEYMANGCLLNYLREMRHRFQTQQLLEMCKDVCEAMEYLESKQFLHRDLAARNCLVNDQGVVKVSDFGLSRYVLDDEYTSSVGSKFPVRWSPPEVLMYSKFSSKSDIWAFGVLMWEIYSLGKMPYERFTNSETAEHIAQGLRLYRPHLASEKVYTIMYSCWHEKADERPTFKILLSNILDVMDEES
Consider `C/C=C/C(=O)Nc1cc(Oc2nc(-c3cnn(C)c3)cn3nccc23)ccc1C` [Example 131, (E)-N-(2-methyl-5-((6-(1-methyl-1H-pyrazol-4-yl)pyrazolo[1,5-a]pyrazin-4-yl)oxy)phenyl)but-2-enamide], for which the negative logarithm of the IC50 (pIC50) (as a rule, −log10 of the IC50, conventionally taken in molar units) is 6.00 to 8.00.
On to `C=CC(=O)N(C)[C@H]1C[C@](C)(Oc2nc(-c3cnn(C)c3)cn3nccc23)[C@H]1C` (single isomer, unassigned) [Example 106], for which the pIC50 was 6.00 to 8.00.
Same read-out and setting: the same measure for `Cc1c(NC(=O)/C=C/CN(C)C2CCC2)cccc1Oc1nc(-c2cnn(C)c2)cn2nccc12` [Example 135, (E)-4-(cyclobutyl(methyl)amino)-N-(2-methyl-3-((6-(1-methyl-1H-pyrazol-4-yl)pyrazolo[1,5-a]pyrazin-4-yl)oxy)phenyl)but-2-enamide]: 6.00 to 8.00; for `C#CC(=O)N1CCC[C@H](COc2nc(-c3cnn(C)c3)cc3nccn23)C1` [Example 46]: 8.00 to 9.00.
Same read-out and setting: the same measure for `C=CC(=O)N1CCCC(N(C)Cc2nc(-c3cnn(C)c3)cn3nccc23)C1` (stereo not drawn) [Example 91, 1-(3-(methyl((6-(1-methyl-1H-pyrazol-4-yl)pyrazolo[1,5-a]pyrazin-4-yl)methyl)amino)piperidin-1-yl)prop-2-en-1-one]: 6.00 to 8.00; for `C=CC(=O)N(C)[C@H]1C[C@@](C)(Oc2nc(-c3cn[nH]c3)cn3nccc23)C1` [Example 80, N-((1s,3s)-3-((6-(1H-pyrazol-4-yl)pyrazolo[1,5-a]pyrazin-4-yl)oxy)-3-methylcyclobutyl)-N-methylacrylamide]: over 9.00.
Still for that read-out and setting: the same measure for `C=CC(=O)N1CCC[C@H](Oc2nc(-c3cnn(C)c3)cc3nccn23)CC1` (single isomer, unassigned) [Example 38, (R)- or (S)-1-(4-((7-(1-methyl-1H-pyrazol-4-yl)imidazo[1,2-c]pyrimidin-5-yl)oxy)azepan-1-yl)prop-2-en-1-one]: 6.00 to 8.00; for `C=CC(=O)NCc1cccc(Oc2nc(-c3cnn(C)c3)cn3nccc23)c1` [Example 132, N-(3-((6-(1-methyl-1H-pyrazol-4-yl)pyrazolo[1,5-a]pyrazin-4-yl)oxy)benzyl)acrylamide]: 6.00 to 8.00; for `C=CC(=O)N1CCCC(Oc2nc(-c3cn(C)nc3C)cn3nccc23)CC1` (single isomer, unassigned) [Example 69 E1, 1-[-4-[6-(1,3-dimethylpyrazol-4-yl)pyrazolo[1,5-a]pyrazin-4-yl]oxyazepan-1-yl]prop-2-en-1-one]: 8.00 to 9.00.
For `CN(C(=O)C1=CCC1)[C@H]1CC[C@@H](Oc2nc(-c3cnn(C)c3)cn3nccc23)C1` (racemic) [Example 149, rac-N-methyl-N-((1R,3S)-3-((6-(1-methyl-1H-pyrazol-4-yl)pyrazolo[1,5-a]pyrazin-4-yl)oxy)cyclopentyl)cyclobut-1-ene-1-carboxamide], the pIC50 was 8.00 to 9.00.
Still for that read-out and setting: next, `Cn1cc(-c2cn3nccc3c(O[C@H]3C[C@H](N(C)C(=O)/C=C/CCl)C3)n2)cn1` [Example 227, (E)-4-chloro-N-methyl-N-((trans)-3-((6-(1-methyl-1H-pyrazol-4-yl)pyrazolo[1,5-a]pyrazin-4-yl)oxy)cyclobutyl)but-2-enamide]: over 9.00; `C=CC(=O)N1CCC2(CC1)CC(Oc1nc(-c3cnn(C)c3)cn3nccc13)C2` [Example 208, 1-(2-((6-(1-methyl-1H-pyrazol-4-yl)pyrazolo[1,5-a]pyrazin-4-yl)oxy)-7-azaspiro[3.5]nonan-7-yl)prop-2-en-1-one]: 6.00 to 8.00.
Same read-out and setting: the same measure for `C/C=C/S(=O)(=O)N1CCC[C@@H](Oc2nc(-c3cnn(C)c3)cn3nccc23)C1` [Example 17, (R,E)-6-(1-methyl-1H-pyrazol-4-yl)-4-((1-(prop-1-en-1-ylsulfonyl)piperidin-3-yl)oxy)pyrazolo[1,5-a]pyrazine]: 6.00 to 8.00.
Same read-out and setting: next, `C=CC(=O)N1CCC[C@@H]2[C@H]1C[C@]2(C)Oc1nc(-c2cnn(C)c2)cn2nccc12` (single isomer, unassigned) [Example 112]: 6.00 to 8.00.
On to `Cn1cc(-c2cc3nccn3c(O[C@]3(C)C[C@H](N(C)C(=O)/C=C/C(F)(F)F)C3)n2)cn1` [Example 201, (E)-4,4,4-trifluoro-N-methyl-N-((1s,3s)-3-methyl-3-((7-(1-methyl-1H-pyrazol-4-yl)imidazo[1,2-c]pyrimidin-5-yl)oxy)cyclobutyl)but-2-enamide], for which the pIC50 is 8.00 to 9.00.
`C=CC(=O)NC1CN(c2cc(-c3cnn(C)c3)cn3nccc23)CC(F)(F)C1` (stereo not drawn) [Example 89, N-(5,5-difluoro-1-(6-(1-methyl-1H-pyrazol-4-yl)pyrazolo[1,5-a]pyridin-4-yl)piperidin-3-yl)acrylamide]: the pIC50 was 6.00 to 8.00.

Another experiment concerns CD69 expression on CD19+ B cells in human whole blood stimulated with anti-human IgD. In words: In Vitro whole blood CD69 Assay. It is filed as cell-based. The following applies: Homo sapiens, B-cell, human heparinized whole blood, anti-human IgD stimulation overnight, percentage of CD19+ B cells expressing CD69, flow cytometry; read-out: IC50.
On to `Cn1cc(-c2cn3nccc3c(OC3CCN(C(=O)/C=C\CCl)CC3)n2)cn1` [Example 8, (Z)-4-chloro-1-(4-((6-(1-methyl-1H-pyrazol-4-yl)pyrazolo[1,5-a]pyrazin-4-yl)oxy)piperidin-1-yl)but-2-en-1-one], for which the pIC50 is 5.00 to 6.00.
`C=CC(=O)N(C)[C@H]1C[C@@H](Oc2nc(-c3cnn(C)c3)cn3nccc23)C1` [Example 215, N-methyl-N-((cis)-3-((6-(1-methyl-1H-pyrazol-4-yl)pyrazolo[1,5-a]pyrazin-4-yl)oxy)cyclobutyl)acrylamide]: the pIC50 is 5.00 to 6.00.
For the molecule `C=CC(=O)N1C[C@@H]2[C@H](COc3nc(-c4cnn(C)c4)cn4nccc34)[C@@H]2C1` [Example 221, 1-((1R,5S,6s)-6-(((6-(1-methyl-1H-pyrazol-4-yl)pyrazolo[1,5-a]pyrazin-4-yl)oxy)methyl)-3-azabicyclo[3.1.0]hexan-3-yl)prop-2-en-1-one], the pIC50 is 5.00 to 6.00.
Still for that read-out and setting: the same measure for `C=CC(=O)N1CCC(Oc2nc(-c3cnn(C)c3)cn3nccc23)CC1` [Example 2, 1-(4-((6-(1-methyl-1H-pyrazol-4-yl)pyrazolo[1,5-a]pyrazin-4-yl)oxy)piperidin-1-yl)prop-2-en-1-one]: under 5.00; for `C=CC(=O)N(C)[C@@H]1CCC[C@H](Oc2nc(-c3cnn(C)c3)cn3nccc23)C1` [Example 176, N-methyl-N—((1R,3S)-3-((6-(1-methyl-1H-pyrazol-4-yl)pyrazolo[1,5-a]pyrazin-4-yl)oxy)cyclohexyl)acrylamide]: 5.00 to 6.00.
Still for that read-out and setting: the same measure for `C=CC(=O)N(C)[C@@H]1CC[C@H](Oc2nc(-c3cnn(C)c3)cn3nccc23)C1` (relative stereo) [Example 143, N-methyl-N-((cis)-3-((6-(1-methyl-1H-pyrazol-4-yl)pyrazolo[1,5-a]pyrazin-4-yl)oxy)cyclopentyl)acrylamide]: over 6.00.
Still for that read-out and setting: the same measure for `C=CC(=O)N1CC[C@H]2[C@@H]1C[C@@]2(C)Oc1nc(-c2cnn(C)c2)cn2nccc12` [Example 191, 1-((1S,5S,6R)-6-methyl-6-((6-(1-methyl-1H-pyrazol-4-yl)pyrazolo[1,5-a]pyrazin-4-yl)oxy)-2-azabicyclo[3.2.0]heptan-2-yl)prop-2-en-1-one]: 5.00 to 6.00; for `C=CC(=O)N1C[C@@H]2[C@@H](COc3nc(-c4cnn(C)c4)cn4nccc34)[C@@H]2C1` [Example 214, 1-((1R,5S,6r)-6-(((6-(1-methyl-1H-pyrazol-4-yl)pyrazolo[1,5-a]pyrazin-4-yl)oxy)methyl)-3-azabicyclo[3.1.0]hexan-3-yl)prop-2-en-1-one]: over 6.00.
